Measurements: patent US20230219965A1 (KSQ Therapeutics, Inc., priority 2020, published 2023)
Read-outs that look alike come from different tables or passages of the source.

Key:
[1] = Liver microsomal metabolic stability, human liver microsomes (HLM); conditions: human, liver microsomes
USP1/UAF1 enzyme = USP1/UAF1 enzyme (Homo sapiens, UniProt O94782); assay: USP1/UAF1 deubiquitination assay (ubiquitin-rhodamine 110 substrate); assay type: biochemical; conditions: read-out: USP1 IC50 (Ub-Rho)
Outline: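 0.05 nM USP1/UAF1 was preincubated 10 min with compounds (dose response from 10 μM) in 50 mM Tris-HCl pH 7.8, 0.5 mM EDTA, 0.01% BSA, 1 mM DTT, 0.01% Tween-20. 150 nM ubiquitin-rhodamine 110 started the reaction, read kinetically 30 min at Ex480/Em540; IC50 by four-parameter fit versus no-enzyme and DMSO controls.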

[2] = ADME solubility determination in PBS at pH 2.0 and pH 7.4; assay type: physicochemical; conditions: phosphate buffered saline, 25 °C, thermodynamic from solid
Outline: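 Dried 10 mM DMSO stock residues taken up in PBS pH 7.4 or pH 2.0, shaken 24 h at 25° C. After centrifugation, supernatant quantified by LC-MS/MS against a standard of known concentration, with a dilution factor applied.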

[3] = Liver microsomal metabolic stability, rat liver microsomes (RLM); conditions: rat, liver microsomes, t1/2 (min) in RLM, 1 μM compound, 1 mg/mL microsomes, NADPH
[4] = test system: Ub-PCNA levels in the nucleus of ES2 cells (USP1 activity); assay: ES2 Ub-PCNA immunofluorescence (IF) assay; assay type: cell-based; conditions: Homo sapiens, ES-2; ES2 cells, 3 hours, Ub-PCNA immunofluorescence; read-out: USP1 IC50 (Ub-PCNA)
Outline: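 Cells plated overnight, then compound-treated for 3 h at 37° C (0.3% DMSO final), methanol-fixed and stained with anti-Ub-PCNA plus DAPI. Per-nucleus Ub-PCNA intensity imaged; cells above the 95% cutoff of untreated wells counted as positive, and percent positive cells used to derive AC50.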

[5] = pH 2, aqueous buffer, PBS pH 2.0, 25° C., read-out: Solubility at pH 2.0
[6] = pH 7.4, aqueous buffer, PBS pH 7.4, 25° C., read-out: Solubility at pH 7.4

Chain of USP1/UAF1 enzyme (O94782 whole entry): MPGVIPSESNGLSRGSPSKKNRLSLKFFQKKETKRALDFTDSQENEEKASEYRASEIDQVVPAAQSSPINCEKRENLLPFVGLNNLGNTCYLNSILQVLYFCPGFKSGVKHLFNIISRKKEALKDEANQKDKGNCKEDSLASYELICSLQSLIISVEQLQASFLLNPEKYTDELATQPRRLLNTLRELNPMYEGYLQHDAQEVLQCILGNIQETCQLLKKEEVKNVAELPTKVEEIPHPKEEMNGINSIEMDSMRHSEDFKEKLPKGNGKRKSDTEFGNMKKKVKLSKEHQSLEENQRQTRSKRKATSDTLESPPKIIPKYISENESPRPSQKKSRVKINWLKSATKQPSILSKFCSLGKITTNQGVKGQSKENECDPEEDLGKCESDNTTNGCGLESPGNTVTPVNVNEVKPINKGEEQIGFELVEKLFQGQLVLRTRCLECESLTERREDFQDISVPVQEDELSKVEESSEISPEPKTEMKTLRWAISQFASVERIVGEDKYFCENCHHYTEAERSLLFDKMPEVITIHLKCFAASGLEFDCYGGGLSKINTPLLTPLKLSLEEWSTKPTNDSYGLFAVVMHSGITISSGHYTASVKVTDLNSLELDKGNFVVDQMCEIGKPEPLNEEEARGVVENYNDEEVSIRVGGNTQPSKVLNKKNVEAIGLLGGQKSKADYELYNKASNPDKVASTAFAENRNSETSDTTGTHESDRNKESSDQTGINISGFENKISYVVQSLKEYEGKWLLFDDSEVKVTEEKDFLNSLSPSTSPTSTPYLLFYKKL
Chain of USP1/UAF1 enzyme (Q8TAF3 whole entry partner): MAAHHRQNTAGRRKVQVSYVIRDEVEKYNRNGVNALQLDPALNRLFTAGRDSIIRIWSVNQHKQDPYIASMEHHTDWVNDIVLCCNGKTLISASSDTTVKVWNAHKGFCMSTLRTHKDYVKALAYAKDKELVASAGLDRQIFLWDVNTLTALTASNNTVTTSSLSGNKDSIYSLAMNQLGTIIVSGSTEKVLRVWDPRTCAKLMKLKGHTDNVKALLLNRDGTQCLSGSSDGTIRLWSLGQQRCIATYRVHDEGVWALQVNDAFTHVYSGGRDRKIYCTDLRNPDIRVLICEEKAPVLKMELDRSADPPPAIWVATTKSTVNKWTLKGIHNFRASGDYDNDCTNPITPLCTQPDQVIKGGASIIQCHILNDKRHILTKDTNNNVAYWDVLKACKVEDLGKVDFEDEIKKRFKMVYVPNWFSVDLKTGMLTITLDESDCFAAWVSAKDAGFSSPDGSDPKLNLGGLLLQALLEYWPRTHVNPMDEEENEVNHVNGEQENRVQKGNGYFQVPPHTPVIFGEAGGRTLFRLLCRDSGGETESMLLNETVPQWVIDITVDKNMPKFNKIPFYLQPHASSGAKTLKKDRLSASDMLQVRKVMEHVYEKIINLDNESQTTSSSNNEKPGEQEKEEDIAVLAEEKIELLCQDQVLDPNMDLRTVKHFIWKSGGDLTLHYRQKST

half-life at 1 μM [1] | IC50 (USP1/UAF1 enzyme) | solubility at 24 h [2, 5] | solubility at 24 h [2, 6] | half-life at 1 μM [3] | IC50 [4] | SMILES
> 25 min | < 100 nM | < 10 µM | < 10 µM | > 25 min | < 100 nM | CCn1cc(C(F)(F)F)nc1-c1ccc(C(C)N2C(=O)CCn3nc(-c4c(OC)ncnc4C4CC4)cc32)cc1F (stereo not drawn) [Example 120]
> 25 min | 100 to 500 nM | ≥ 10 µM | < 10 µM | > 25 min | > 500 nM | COc1ncnc(C2CC2)c1-c1cc2n(n1)CCC(=O)N2[C@@H](C)c1ccc(-c2nc(C(F)(F)F)cn2C(C)C)cc1 [Example 122]
> 25 min | < 100 nM | ≥ 10 µM | < 10 µM | > 25 min | < 100 nM | COc1ncnc(C2CC2)c1-c1cc2n(n1)CCC(=O)N2[C@H](C)c1ccc(-c2nc(C(F)(F)F)cn2C(C)C)cc1 [Example 123]
< 25 min | 100 to 500 nM | ≥ 10 µM | ≥ 10 µM | < 25 min | > 500 nM | CCn1cc(C(F)(F)F)nc1-c1ccc([C@H](C)N2C(=O)CCn3nc(-c4c(OC)ncnc4C4CC4)cc32)cc1 [Example 124]
> 25 min | < 100 nM | ≥ 10 µM | < 10 µM | > 25 min | < 100 nM | CCn1cc(C(F)(F)F)nc1-c1ccc([C@@H](C)N2C(=O)CCn3nc(-c4c(OC)ncnc4C4CC4)cc32)cc1 [Example 125]
> 25 min | < 100 nM | ≥ 10 µM | < 10 µM | < 25 min | < 100 nM | COc1cc([C@@H](C)N2C(=O)CCn3nc(-c4c(OC)ncnc4C4CC4)cc32)ccc1-c1nc(C(F)(F)F)cn1C(C)C [Example 129]
< 25 min | < 100 nM | < 10 µM | < 10 µM | < 25 min | < 100 nM | CCn1cc(C(F)(F)F)nc1-c1ccc(CN2C(=O)CCn3nc(-c4c(Cl)cnn4[C@H](C)COC)cc32)cc1F [Example 131]
< 25 min | < 100 nM | < 10 µM | < 10 µM | < 25 min | < 100 nM | CCn1cc(C(F)(F)F)nc1-c1ccc(CN2C(=O)CCn3nc(-c4c(Cl)cnn4[C@@H](C)COC)cc32)cc1F [Example 132]
> 25 min | < 100 nM | < 10 µM | < 10 µM | > 25 min | 100 to 500 nM | CC(C)n1ncc(Cl)c1-c1cc2n(n1)CCC(=O)N2Cc1ccc(-c2nn(C)cc2C#N)cc1 [Example 133]
< 25 min | < 100 nM | < 10 µM | < 10 µM | < 25 min | < 100 nM | COc1cc(C)nn1-c1ccc(CN2C(=O)CCn3nc(-c4c(Cl)cnn4C(C)C)cc32)cc1 [Example 135]
> 25 min | < 100 nM | < 10 µM | < 10 µM | > 25 min | 100 to 500 nM | CCn1cc(C(F)(F)F)nc1-c1ccc([C@@H](C)N2C(=O)CCn3nc(-c4c(Cl)cnn4C(C)C)cc32)cn1 [Example 139]
> 25 min | < 100 nM | ≥ 10 µM | < 10 µM | > 25 min | < 100 nM | CCn1cc(C(F)(F)F)nc1-c1c(F)cc(CN2C(=O)CCn3nc(-c4c(OC)ncnc4C4CC4)cc32)cc1OC [Example 140]
> 25 min | < 100 nM | < 10 µM | < 10 µM | > 25 min | < 100 nM | CCn1cc(C(F)(F)F)nc1-c1c(F)cc(CN2C(=O)CCn3nc(-c4c(Cl)cnn4C(C)C)cc32)cc1OC [Example 141]
> 25 min | 100 to 500 nM | ≥ 10 µM | < 10 µM | < 25 min | 100 to 500 nM | CCn1cc(C(F)(F)F)nc1-c1ccc([C@H](C)N2C(=O)CCn3nc(-c4c(OC)ncnc4C4CC4)cc32)cc1F [Example 142]
> 25 min | < 100 nM | ≥ 10 µM | ≥ 10 µM | > 25 min | < 100 nM | CCn1cc(C(F)(F)F)nc1-c1ccc([C@@H](C)N2C(=O)CCn3nc(-c4c(OC)ncnc4C4CC4)cc32)cc1F [Example 143]
> 25 min | < 100 nM | ≥ 10 µM | < 10 µM | > 25 min | < 100 nM | COc1cc(CN2C(=O)CCn3nc(-c4c(OC)ncnc4C4CC4)cc32)cc(F)c1-c1nc(C(F)(F)F)cn1C(C)C [Example 144]
< 25 min | < 100 nM | < 10 µM | < 10 µM | < 25 min | < 100 nM | CCn1cc(C(F)(F)F)nc1-c1c(Cl)cc(CN2C(=O)CCn3nc(-c4c(OC)ncnc4C4CC4)cc32)cc1OC [Example 145]
< 25 min | < 100 nM | < 10 µM | < 10 µM | < 25 min | < 100 nM | Cc1cnn(C(C)C)c1-c1nn2c(c1Cl)N(Cc1ccc(-c3nc(C(F)(F)F)cn3C)cc1)CCC2 [Example 147, 3-chloro-2-(1-isopropyl-4-methyl-1H-pyrazol-5-yl)-4-(4-(1-methyl-4-(trifluoromethyl)-1H-imidazol-2-yl)benzyl)-4,5,6,7-tetrahydropyrazolo[1,5-α]pyrimidine]
< 25 min | < 100 nM | < 10 µM | < 10 µM | < 25 min | < 100 nM | Cc1cnn(C(C)C)c1-c1nn2c(c1Cl)N(Cc1ccc(-c3nc(C(F)(F)F)cn3C(C)C)c(F)c1)CCC2 [Example 148]
< 25 min | < 100 nM | < 10 µM | < 10 µM | < 25 min | < 100 nM | CCn1cc(C(F)(F)F)nc1-c1ccc(CN2C(=O)CCn3nc(-c4c(Cl)cnn4C(C)COC)cc32)cc1 (stereo not drawn) [Example 151]
< 25 min | < 100 nM | < 10 µM | < 10 µM | < 25 min | 100 to 500 nM | CCn1cc(C(F)(F)F)nc1-c1ccc(CN2C(=O)CCn3nc(-c4c(Cl)cnn4C4(COC)CC4)cc32)cc1F [Example 153]
> 25 min | < 100 nM | < 10 µM | < 10 µM | < 25 min | 100 to 500 nM | CCn1cc(C(F)(F)F)nc1-c1ccc(CN2C(=O)CCn3nc(-c4c(Cl)cnn4C4(COC)CC4)cc32)cc1 [Example 159]
< 25 min | < 100 nM | < 10 µM | < 10 µM | < 25 min | 100 to 500 nM | CCn1cc(C(F)(F)F)nc1-c1ccc(CN2C(=O)CCn3nc(-c4c(Cl)cnn4C(C)COC)cc32)cc1F (stereo not drawn) [Example 160]
> 25 min | < 100 nM | < 10 µM | < 10 µM | > 25 min | < 100 nM | COc1ncnc(C2CC2)c1-c1nc2n(n1)CCC(=O)N2Cc1ccc(-c2nc(C(F)(F)F)cn2C(C)C)c(F)c1 [Example 164, 2-(4-cyclopropyl-6-methoxypyrimidin-5-yl)-4-(3-fluoro-4-(1-isopropyl-4-(trifluoromethyl)-1H-imidazol-2-yl)benzyl)-6,7-dihydro-[1,2,4]triazolo[1,5-α]pyrimidin-5(4H)-one]
> 25 min | < 100 nM | < 10 µM | < 10 µM | > 25 min | 100 to 500 nM | COc1cc(CN2C(=O)CCn3nc(-c4c(Cl)cnn4C(C)C)nc32)ccc1-c1nc(C(F)(F)F)cn1C(C)C [Example 165]
> 25 min | 100 to 500 nM | ≥ 10 µM | ≥ 10 µM | > 25 min | 100 to 500 nM | COc1cc(CN2C(=O)CCn3nc(-c4c(OC)ncnc4C4CC4)nc32)ccc1-c1nc(C(F)(F)F)cn1C(C)C [Example 166]
> 25 min | < 100 nM | < 10 µM | < 10 µM | > 25 min | < 100 nM | COc1ncnc(C2CC2)c1-c1nc2n(n1)CCC(=O)N2Cc1ccc(-c2nc(C(F)(F)F)cn2C(C)C)cc1 [Example 168]
